The text below walks through data of ChEMBL document CHEMBL1201862, “PubChem BioAssay data set” (2004).

In assay [1] the target is T1, Alkaline phosphatase, tissue-nonspecific isozyme (Homo sapiens, UniProt P05186).
T1 sequence (P05186 whole entry): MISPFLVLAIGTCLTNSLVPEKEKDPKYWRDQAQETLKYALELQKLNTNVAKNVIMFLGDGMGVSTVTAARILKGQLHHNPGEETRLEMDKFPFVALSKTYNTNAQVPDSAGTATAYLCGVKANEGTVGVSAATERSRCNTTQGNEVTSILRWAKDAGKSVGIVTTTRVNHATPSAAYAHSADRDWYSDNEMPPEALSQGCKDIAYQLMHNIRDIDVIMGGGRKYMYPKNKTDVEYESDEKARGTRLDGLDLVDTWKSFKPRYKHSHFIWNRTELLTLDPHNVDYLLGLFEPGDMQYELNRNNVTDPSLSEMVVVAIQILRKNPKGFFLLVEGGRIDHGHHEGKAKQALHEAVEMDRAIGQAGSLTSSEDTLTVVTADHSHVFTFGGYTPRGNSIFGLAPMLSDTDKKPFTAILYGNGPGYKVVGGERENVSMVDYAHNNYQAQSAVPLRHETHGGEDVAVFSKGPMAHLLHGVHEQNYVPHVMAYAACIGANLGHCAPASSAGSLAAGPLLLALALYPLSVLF
The assay can be described thus: TNAP enzyme inhibition by screening hits, dose response, selectivity assay for mouse IAP inhibitor project, biochemical, human TNAP, uHTS hits (AID 488906). Type of assay: functional.

For assay [2], the target named is Intestinal-type alkaline phosphatase (Homo sapiens, UniProt P09923). In words: inhibition of human intestinal alkaline phosphatase – biochemical, dose response (AID 488876). Format: functional.
The nature of assay [3]: non-specific 3'UTR reporter inhibition in Clone20-Shn3RL – cell-based, Renilla luciferase, cherry-picked, counter-screen for Shn3 inhibitor project, dose response (AID 624133). Type of assay: functional. A general note: A counterscreen serves to expose hits that act by an unwanted route or on another target.
Assay [4] has as its system Streptococcus sp. 'group A'. The assay can be described thus: Streptococcus pyogenes SK(-)GAS viability under kanamycin – luminescence, BacTiterGlo, confirmation, counter-screen for streptokinase expression inhibitor project, dose response (AID 1900). Type of assay: functional, organism-based.
Assay [5] addresses Sphingosine 1-phosphate receptor 1 (Homo sapiens, UniProt P21453). Format: functional.
Another assay has as its target T2, Hexokinase HKDC1 (Homo sapiens, UniProt Q2TB90).
T2 sequence (Q2TB90 whole entry): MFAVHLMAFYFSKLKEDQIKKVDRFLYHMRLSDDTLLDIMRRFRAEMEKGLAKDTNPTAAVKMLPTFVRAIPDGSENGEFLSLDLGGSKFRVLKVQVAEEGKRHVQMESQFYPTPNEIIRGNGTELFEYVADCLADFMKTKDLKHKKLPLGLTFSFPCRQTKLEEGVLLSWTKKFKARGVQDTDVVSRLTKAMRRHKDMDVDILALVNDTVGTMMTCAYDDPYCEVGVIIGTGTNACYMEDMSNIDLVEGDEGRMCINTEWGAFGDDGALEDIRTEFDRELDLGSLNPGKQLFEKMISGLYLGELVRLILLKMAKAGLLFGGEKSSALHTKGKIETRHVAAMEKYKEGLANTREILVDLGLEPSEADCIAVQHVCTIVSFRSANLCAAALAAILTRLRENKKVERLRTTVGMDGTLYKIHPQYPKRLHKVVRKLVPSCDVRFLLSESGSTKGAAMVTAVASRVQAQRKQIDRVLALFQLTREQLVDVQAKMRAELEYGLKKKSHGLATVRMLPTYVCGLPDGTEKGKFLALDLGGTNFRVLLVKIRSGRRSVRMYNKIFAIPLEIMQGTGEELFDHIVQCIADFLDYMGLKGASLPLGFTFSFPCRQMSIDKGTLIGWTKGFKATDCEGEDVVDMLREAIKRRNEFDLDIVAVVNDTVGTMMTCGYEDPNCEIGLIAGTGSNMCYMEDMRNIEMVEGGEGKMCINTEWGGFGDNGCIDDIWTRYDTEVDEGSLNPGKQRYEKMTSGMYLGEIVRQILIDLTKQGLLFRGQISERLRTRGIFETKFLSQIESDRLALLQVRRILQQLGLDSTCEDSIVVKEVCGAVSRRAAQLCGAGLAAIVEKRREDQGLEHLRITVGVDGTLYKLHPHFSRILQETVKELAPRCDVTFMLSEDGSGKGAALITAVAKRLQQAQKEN
The assay can be described thus: inhibition of HKDC1 glucose phosphorylation – biochemical, W721R variant, dose response (AID 504729). Format: functional.

Assay [6] concerns the target Induced myeloid leukemia cell differentiation protein Mcl-1 (Homo sapiens, UniProt Q07820). Type of assay: functional.
Assay [7] has as its target Tyrosine-protein kinase Srms (Homo sapiens, UniProt Q9H3Y6). Type of assay: functional.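 Also: SRMS measured as one member of a kinome-wide kinase profiling panel.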
The target of assay [8] is Dual specificity tyrosine-phosphorylation-regulated kinase 1B (Homo sapiens, UniProt Q9Y463). The assay can be described thus: Navigating the Kinome. Panel member name: DYRK1B. Format: functional.
Dual specificity tyrosine-phosphorylation-regulated kinase 1B, sequence (Q9Y463 whole entry): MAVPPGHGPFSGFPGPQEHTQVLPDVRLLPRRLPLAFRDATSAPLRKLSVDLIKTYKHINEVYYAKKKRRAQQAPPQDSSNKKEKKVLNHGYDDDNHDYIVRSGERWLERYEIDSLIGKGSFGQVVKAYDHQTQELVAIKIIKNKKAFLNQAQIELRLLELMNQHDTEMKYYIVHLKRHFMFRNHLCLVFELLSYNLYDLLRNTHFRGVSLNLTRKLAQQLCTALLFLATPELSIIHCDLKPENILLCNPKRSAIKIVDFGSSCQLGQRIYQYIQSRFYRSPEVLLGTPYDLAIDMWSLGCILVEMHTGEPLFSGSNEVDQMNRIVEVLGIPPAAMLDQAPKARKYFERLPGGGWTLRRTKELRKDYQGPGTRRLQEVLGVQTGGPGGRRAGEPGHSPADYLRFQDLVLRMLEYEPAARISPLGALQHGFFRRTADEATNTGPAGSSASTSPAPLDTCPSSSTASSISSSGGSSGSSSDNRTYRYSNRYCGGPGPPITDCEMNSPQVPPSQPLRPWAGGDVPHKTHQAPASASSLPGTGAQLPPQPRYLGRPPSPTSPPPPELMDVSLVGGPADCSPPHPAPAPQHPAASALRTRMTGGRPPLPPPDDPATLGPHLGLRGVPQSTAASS
For assay [9], the target named is Cyclin-dependent kinase 5 (Homo sapiens, UniProt Q00535). Format: functional.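 Also: CDK5 measured as one member of a kinase profiling panel.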
Assay [10] addresses Serine/threonine-protein kinase PLK3 (Homo sapiens, UniProt Q9H4B4). Type of assay: functional.
The target of assay [11] is Tyrosine-protein kinase Lck (Homo sapiens, UniProt P06239). Type of assay: functional.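 Also: lck was assayed as one member of a kinase panel.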
For assay [12], the target named is Tyrosine-protein kinase ITK/TSK (Homo sapiens, UniProt Q08881). Type of assay: functional.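 Also: affinity for ITK measured as one member of a broad kinase panel profiling binding across the kinome.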
The target of assay [13] is Proto-oncogene tyrosine-protein kinase receptor Ret (Homo sapiens, UniProt P07949). Type of assay: functional.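 Also: measured within a kinome-wide profiling panel, RET as the panel member.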
Proto-oncogene tyrosine-protein kinase receptor Ret, sequence (P07949 whole entry): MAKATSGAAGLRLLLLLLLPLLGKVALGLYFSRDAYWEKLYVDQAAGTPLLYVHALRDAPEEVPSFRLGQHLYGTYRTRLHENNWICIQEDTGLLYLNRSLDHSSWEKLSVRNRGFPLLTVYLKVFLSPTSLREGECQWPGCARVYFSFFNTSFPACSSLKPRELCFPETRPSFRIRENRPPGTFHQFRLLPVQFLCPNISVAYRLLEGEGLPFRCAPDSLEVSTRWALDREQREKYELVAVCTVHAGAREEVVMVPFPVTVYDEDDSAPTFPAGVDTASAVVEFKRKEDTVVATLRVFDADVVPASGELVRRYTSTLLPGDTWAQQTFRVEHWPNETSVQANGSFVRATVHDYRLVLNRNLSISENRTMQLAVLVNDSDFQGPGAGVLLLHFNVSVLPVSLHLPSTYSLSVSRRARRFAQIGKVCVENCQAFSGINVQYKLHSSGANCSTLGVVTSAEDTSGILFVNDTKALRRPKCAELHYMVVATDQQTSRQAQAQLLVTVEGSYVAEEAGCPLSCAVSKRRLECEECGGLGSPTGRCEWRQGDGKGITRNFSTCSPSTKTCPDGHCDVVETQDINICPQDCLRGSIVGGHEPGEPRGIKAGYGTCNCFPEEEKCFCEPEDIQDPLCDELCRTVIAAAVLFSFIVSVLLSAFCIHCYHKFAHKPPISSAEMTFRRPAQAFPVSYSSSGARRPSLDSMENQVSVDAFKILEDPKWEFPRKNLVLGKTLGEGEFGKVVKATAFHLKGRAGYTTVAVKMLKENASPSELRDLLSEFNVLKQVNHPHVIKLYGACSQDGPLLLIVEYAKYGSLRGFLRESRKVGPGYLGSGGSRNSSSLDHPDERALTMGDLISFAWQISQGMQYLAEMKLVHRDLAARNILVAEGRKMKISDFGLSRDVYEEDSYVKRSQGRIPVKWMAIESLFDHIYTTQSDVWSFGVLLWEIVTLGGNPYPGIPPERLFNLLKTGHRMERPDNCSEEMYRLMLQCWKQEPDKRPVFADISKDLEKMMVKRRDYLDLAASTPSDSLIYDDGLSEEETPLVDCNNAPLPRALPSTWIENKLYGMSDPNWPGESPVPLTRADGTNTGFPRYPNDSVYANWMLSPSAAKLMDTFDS
Assay [14] addresses Mitogen-activated protein kinase kinase kinase kinase 2 (Homo sapiens, UniProt Q12851). Format: functional.
Assay [15] concerns the target Dual specificity mitogen-activated protein kinase kinase 2 (Homo sapiens, UniProt P36507). In words: Navigating the Kinome. Panel member name: MAP2K2. Format: functional.
The target in assay [16] is Calcium/calmodulin-dependent protein kinase type II subunit alpha (Homo sapiens, UniProt Q9UQM7). In words: Navigating the Kinome. Panel member name: CAMK2A. Format: functional.
Assay [17] addresses Tyrosine-protein kinase Fyn (Homo sapiens, UniProt P06241). Type of assay: functional.
Assay [18] addresses Serine/threonine-protein kinase Chk1 (Homo sapiens, UniProt O14757). Type of assay: functional.
Assay [19] concerns the target Vascular endothelial growth factor receptor 1 (Homo sapiens, UniProt P17948). Type of assay: functional.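 Also: measured within a kinome-wide profiling panel, FLT1 as the panel member.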
Assay [20] concerns the target Serine/threonine-protein kinase pim-1 (Homo sapiens, UniProt P11309). Type of assay: functional.
In assay [21] the target is Leukocyte tyrosine kinase receptor (Homo sapiens, UniProt P29376). The assay can be described thus: Navigating the Kinome. Panel member name: LTK. Format: functional.
Assay [22] deals with Serine/threonine-protein kinase 17A (Homo sapiens, UniProt Q9UEE5). Type of assay: functional.
For assay [23], the target named is Tyrosine-protein kinase SYK (Homo sapiens, UniProt P43405). Format: functional.
In assay [24] the target is Tyrosine-protein kinase ABL1 (Homo sapiens, UniProt P00519). Type of assay: functional.

The source made the active and inactive calls.

Tyrosine-protein kinase Fyn, sequence (P06241 whole entry): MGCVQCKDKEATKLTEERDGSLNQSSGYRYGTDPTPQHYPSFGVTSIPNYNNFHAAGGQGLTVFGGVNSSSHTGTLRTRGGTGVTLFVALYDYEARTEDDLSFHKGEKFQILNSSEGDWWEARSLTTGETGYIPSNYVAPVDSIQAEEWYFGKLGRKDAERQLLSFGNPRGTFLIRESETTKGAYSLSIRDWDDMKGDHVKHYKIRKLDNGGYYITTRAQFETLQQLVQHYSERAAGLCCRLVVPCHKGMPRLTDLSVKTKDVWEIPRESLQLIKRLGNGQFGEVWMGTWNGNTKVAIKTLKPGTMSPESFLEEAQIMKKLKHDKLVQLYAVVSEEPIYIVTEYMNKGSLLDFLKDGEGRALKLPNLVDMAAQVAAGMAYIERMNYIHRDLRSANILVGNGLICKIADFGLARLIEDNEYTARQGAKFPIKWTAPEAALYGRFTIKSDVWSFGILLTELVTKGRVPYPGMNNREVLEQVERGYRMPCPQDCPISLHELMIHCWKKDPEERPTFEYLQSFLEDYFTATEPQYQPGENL
Dual specificity mitogen-activated protein kinase kinase 2, sequence (P36507 whole entry): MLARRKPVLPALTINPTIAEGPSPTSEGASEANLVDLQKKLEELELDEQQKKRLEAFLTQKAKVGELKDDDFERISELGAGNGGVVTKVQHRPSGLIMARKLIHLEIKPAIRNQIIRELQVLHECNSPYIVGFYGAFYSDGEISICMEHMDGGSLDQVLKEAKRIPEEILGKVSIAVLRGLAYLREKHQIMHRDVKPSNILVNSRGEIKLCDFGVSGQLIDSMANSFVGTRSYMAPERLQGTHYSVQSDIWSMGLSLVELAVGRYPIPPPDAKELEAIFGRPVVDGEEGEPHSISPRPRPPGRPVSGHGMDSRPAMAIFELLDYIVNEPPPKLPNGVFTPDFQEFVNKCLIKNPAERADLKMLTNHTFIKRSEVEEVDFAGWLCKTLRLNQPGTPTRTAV
Vascular endothelial growth factor receptor 1, sequence (P17948 whole entry): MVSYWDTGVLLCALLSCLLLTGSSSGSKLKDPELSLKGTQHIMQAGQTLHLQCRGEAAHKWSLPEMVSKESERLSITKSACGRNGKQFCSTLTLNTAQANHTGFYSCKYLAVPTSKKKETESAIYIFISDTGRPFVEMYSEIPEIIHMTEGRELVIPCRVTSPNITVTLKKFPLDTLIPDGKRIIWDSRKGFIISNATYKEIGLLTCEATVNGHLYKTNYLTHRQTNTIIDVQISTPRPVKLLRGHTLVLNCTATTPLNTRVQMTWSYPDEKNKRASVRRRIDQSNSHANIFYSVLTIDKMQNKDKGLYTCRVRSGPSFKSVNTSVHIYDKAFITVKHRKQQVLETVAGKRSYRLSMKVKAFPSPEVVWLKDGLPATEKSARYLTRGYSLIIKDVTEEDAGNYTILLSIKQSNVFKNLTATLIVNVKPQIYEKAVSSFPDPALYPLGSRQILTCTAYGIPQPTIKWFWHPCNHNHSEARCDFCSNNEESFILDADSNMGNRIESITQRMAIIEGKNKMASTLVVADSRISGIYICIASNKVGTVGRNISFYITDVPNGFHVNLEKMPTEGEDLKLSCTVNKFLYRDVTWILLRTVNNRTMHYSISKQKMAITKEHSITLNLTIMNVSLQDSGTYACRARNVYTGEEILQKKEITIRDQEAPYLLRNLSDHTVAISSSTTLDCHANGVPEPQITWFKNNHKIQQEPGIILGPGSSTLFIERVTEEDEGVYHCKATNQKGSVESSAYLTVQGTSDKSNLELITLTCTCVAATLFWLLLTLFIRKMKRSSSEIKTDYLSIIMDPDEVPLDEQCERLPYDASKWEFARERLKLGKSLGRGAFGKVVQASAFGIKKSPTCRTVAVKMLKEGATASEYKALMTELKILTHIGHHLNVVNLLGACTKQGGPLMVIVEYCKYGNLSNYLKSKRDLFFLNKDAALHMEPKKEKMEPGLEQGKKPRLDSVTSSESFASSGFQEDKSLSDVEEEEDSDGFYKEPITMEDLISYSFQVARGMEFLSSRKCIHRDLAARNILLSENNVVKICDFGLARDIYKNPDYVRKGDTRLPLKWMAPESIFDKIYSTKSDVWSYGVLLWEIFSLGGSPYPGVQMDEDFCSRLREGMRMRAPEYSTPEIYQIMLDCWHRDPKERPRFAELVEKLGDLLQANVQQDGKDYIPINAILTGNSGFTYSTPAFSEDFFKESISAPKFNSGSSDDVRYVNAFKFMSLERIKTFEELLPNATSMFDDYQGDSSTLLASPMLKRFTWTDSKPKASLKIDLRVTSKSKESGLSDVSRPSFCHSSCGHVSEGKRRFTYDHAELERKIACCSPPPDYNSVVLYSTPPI
Induced myeloid leukemia cell differentiation protein Mcl-1, sequence (Q07820 whole entry): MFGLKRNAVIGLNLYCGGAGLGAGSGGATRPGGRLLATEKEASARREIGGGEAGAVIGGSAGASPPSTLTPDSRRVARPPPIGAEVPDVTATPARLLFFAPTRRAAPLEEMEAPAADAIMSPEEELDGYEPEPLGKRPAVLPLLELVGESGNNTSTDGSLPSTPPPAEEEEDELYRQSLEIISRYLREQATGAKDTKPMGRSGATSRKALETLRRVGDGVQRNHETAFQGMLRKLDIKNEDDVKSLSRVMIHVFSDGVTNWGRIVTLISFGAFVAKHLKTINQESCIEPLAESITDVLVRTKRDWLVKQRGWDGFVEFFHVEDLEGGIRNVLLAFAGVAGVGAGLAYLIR
Serine/threonine-protein kinase Chk1, sequence (O14757 whole entry): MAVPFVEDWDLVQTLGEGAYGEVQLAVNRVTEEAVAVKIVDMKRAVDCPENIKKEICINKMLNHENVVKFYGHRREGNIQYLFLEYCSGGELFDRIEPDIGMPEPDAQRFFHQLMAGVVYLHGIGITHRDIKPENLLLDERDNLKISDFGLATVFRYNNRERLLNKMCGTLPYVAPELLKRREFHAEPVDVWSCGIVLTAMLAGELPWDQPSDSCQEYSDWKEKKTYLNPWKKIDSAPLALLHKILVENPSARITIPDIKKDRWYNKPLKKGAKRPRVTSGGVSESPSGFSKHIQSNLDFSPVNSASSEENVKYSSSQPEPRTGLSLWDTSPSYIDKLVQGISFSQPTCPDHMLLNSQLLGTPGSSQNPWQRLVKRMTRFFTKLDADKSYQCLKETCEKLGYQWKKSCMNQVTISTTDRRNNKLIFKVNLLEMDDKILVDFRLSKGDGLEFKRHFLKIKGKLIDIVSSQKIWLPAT

As to `O=C(NN1C(=O)CSC1=S)C(=O)NN1C(=O)CSC1=S`, the IC50 in assay [1] and in assay [2] was > 100 µM (inactive) throughout.

Consider `COC(=O)C1CN(C#N)N(c2ccc(Cl)cc2)C12c1ccccc1-c1ccccc12` (stereo not given), for which, in assay [3], the AC50 is 3 µM (active). In addition, the EC50 in assay [4] is 4.31 µM (active). Moreover, the IC50 is 5.76 µM (active) in [5] and 3.81 µM (active) at Hexokinase HKDC1.

Take `O=C1NC(=S)S/C1=C\C=C\c1ccc([N+](=O)[O-])o1`: the IC50 in assay [6] is 1.92 µM (active).

`Nc1noc2cccc(-c3cccc(O)c3)c12`: the Ki is > 1.58 µM (inactive) in [7]; 3.16 µM (active) in assay [8]; > 6.31 µM (inactive) in [9]; > 7.94 µM (inactive) in assay [10]; > 25.1 µM (inactive) in assay [11]; > 1.58 µM (inactive) in [12]. The Ki in [13] is 0.794 µM (active); in [14] it was 15.8 µM (active); in assay [15], 7.94 µM (active); in [16], 50.1 µM (active); in [17] it was > 7.94 µM (inactive); in assay [18], > 7.94 µM (inactive). For the same compound, the Ki in assay [19] was > 10 µM (inactive); in [20], 12.6 µM (active); in [21] it was 1.26 µM (active); in [22], > 3.98 µM (inactive); in assay [23], > 1.58 µM (inactive); in [24] it was > 1 µM (inactive).

By IC50 is commonly meant the concentration needed to halve the response being measured. What is called AC50 is the midpoint of the concentration-response curve, whichever way the signal moves. In general, EC50 refers to the concentration that produces a half-maximal response. A word on the Ki: it is the equilibrium dissociation constant of an inhibitor or competing ligand from its target.
